The results in this text go back to US20110065734A1, “NOVEL BIFUNCTIONAL COMPOUNDS WHICH INHIBIT PROTEIN KINASES AND HISTONE DEACETYLASES” (4SC AG, priority 2007, published 2011).

Structures can show the parent of a compound that is named as a salt. Where two headings read alike, the source gives them in different places. A value given as a limit tells only on which side of the number the result lay.

One series deals with T1, EGFR/HER1 (Homo sapiens, UniProt P00533).
T1 construct: EGFR/HER1 C-terminal kinase domain; made in house
T1 sequence (P00533 712-979 limits assumed): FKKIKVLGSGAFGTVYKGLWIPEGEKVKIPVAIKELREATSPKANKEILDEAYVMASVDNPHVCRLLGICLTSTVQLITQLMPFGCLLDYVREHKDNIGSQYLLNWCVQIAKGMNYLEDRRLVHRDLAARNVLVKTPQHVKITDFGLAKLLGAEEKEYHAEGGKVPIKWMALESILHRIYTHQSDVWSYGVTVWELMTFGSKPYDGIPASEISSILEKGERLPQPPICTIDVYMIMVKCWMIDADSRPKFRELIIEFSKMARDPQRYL
In words: Biochemical flash-plate based kinase assay, EGFR/HER1. Particulars: only a range over the listed compounds is given; read-out: EGFR/HER1 inhibition IC50. The text has this: (§1) Active kinase proteins were either obtained from commercial suppliers (Abl, PDGF-Rβ ProQinase, Freiburg/Germany; AblT^315I: Millipore/Upstate, Billerica/USA; PKA: InvitroGen/Panvera, Carlsbad/USA) or prepared in-house (KDR, c-terminal kinase domain AA790-1356, HER2 c-terminal kinase domain, EGFR/HER1 C-terminal kinase domain). As substrates, poly-AGKY for Abl, AblT^315I and PDGF-Rβ (#P-1152 Sigma, Munich/Germany), poly-GluTyr for KDR, HER2 and EGFR/HER1 (#P-0275, Sigma, Munich/Germany) or a PKA substrate peptide for PKA (#12-394, Millipore/Upstate, Billerica/USA) were used. Into each well of a 96-well flashplate (#SMP-200 in the case of Abl, Abl T^315I, PDGF-Rβ, EGFR, HER2 and KDR, #SMP-103 in the case of PKA; Perkin Elmer, Waltham/USA) kinase protein was diluted into kinase assay buffer (50 mM HEPES pH 7.5, 3 mM MgCl2, 3 mM MnCl2, 1 mM DTT, 3 μM sodium orthovanadate, 5 μg/ml PEG 8000) containing the appropriate substrate (final volume 89 μl). DMSO vehicle or compounds are added as 1 μl/well prior to the initiation of the kinase reaction by 10 μl 1 mM [^33P]-γATP (4×10^5 cpm). Reactions were allowed to proceed for a time predetermined to be linear on a time versus phosphorylation plot (30 min for PKA, otherwise 80 min) and terminated with the addition of an equal volume of phosphoric acid (2% H3PO4 for 5 minutes). Plates were washed three times with 0.9% w/v NaCl and quantitated by liquid scintillation counting.

Series [1] has as its system Cal27 head and neck cancer cell line. In words: Cellular cytotoxicity assay (Alamar Blue), Cal27. The format is cell-based. The note with it: Homo sapiens, CAL-27; 72 h; only a range over the listed compounds is given; read-out: Cytotoxicity towards Cal27 cell line IC50. As to the method: (§2) The anti-proliferative activity of the chimeric HDAC and protein kinase inhibitory chimeric compounds of the present invention was evaluated using HeLa cervical carcinoma, A549 NSCLC, SKOV3 ovarian carcinoma, Cal27 head and neck cancer, K562 chronic myeloid leukemia (CML) and EOL1 acute hypereosinophilic myeloid leukemia, cell lines. For quantification of cellular proliferation/living cells the Alamar Blue (Resazurin) cell viability assay was applied (O'Brien et al. Eur Biochem. 267, 5421-5426, 2000). In this assay Resazurin is reduced to the fluorescent resorufin by cellular dehydrogenase activity, correlating with viable, proliferating cells. The examples were dissolved as 20 mM solutions in dimethylsulfoxide (DMSO) and subsequently diluted in semi-logarithmic steps. Cell lines were seeded at respective density into 96 well flat bottom plates in a volume of 200 μl per well. 24 h after seeding 1 μl each of the compound dilutions were added into each well of the 96 well plate. Each compound dilution was tested as quadruplicates. Wells containing untreated control cells were filled with […] DMEM medium containing 0.5% v:v DMSO. The cells were then incubated with the substances for 72 h at 37° C. in a humidified atmosphere containing 5% carbon dioxide. To determine the viability of the cells, 20 μl of an Resazurin solution (Sigma; 90 mg/l) were added. After 4 h incubation at 37° C. the fluorescence was measured at an extinction of 544 nm and an emission of 590 nm. For the calculation of the cell viability the emission value from untreated cells was set as 100% viability and the emission rates of treated cells were set in relation to the values of untreated cells. Viabilities were expressed as % values. The corresponding IC50 values of the compounds for cytotoxic activity are determined from the concentration-effect curves by means of non-linear regression.
Background: The colour change of resazurin is a common sign of viable cells or microbes.

Another series deals with T2, Protein kinase A (PKA) (Homo sapiens, UniProt P17612).
T2 construct: purchased InvitroGen/Panvera, Carlsbad/USA
In words: Biochemical flash-plate based kinase assay, PKA.
Description: as §1

The test system of series [2] is EOL1 acute hypereosinophilic myeloid leukemia cell line. In words: Cellular cytotoxicity assay (Alamar Blue), EOL1. It counts as cell-based. The note with it: Homo sapiens, 72 h, only a range over the listed compounds is given, read-out: Cytotoxicity towards EOL1 cell line IC50. As to the method:
as §2

The target in series [3] is T3, recombinant HDAC1 isolated from HEK293 cells with heterologous HDAC1 expression (Homo sapiens, UniProt Q13547).
T3 construct: made in house
T3 sequence (Q13547 whole entry): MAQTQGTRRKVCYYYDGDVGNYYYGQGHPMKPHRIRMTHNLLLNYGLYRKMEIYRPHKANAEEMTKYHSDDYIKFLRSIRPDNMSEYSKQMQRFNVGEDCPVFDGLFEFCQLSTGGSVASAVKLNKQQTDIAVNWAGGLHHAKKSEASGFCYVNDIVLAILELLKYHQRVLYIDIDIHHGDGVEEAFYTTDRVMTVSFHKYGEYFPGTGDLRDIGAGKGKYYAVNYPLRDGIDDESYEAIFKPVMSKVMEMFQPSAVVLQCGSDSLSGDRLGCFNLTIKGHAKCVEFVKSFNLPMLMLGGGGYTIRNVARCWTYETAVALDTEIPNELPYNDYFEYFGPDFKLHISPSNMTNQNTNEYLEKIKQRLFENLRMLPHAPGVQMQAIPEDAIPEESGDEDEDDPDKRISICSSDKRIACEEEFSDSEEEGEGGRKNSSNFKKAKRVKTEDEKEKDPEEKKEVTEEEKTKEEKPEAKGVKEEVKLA
In words: Fluorimetric rHDAC1 activity assay. It counts as biochemical. The note with it: only a range of IC50 over the compounds given; read-out: rHDAC1 inhibitory activity IC50.

The subject of series [4] is K562 chronic myeloid leukemia (CML) cell line. The series can be described thus: Cellular cytotoxicity assay (Alamar Blue), K562. The format is cell-based. Particulars: Homo sapiens, 72 h, only a range over the listed compounds is given, read-out: Cytotoxicity towards K562 CML cell line IC50. How it is done:
as §2

Series [5] deals with histone H3 hyperacetylation in HeLa cervical carcinoma cells. In words: Cellular histone H3 hyperacetylation assay. The format is cell-based. The note with it: Homo sapiens, 24 h, only a range over the listed compounds is given, read-out: Induction of histone H3 hyperacetylation in HeLa cervical carcinoma cells EC50. From the text: To assess the cellular efficacy of a histone deacetylase inhibitor in vitro, an assay was set up in black clear-bottom 96-well plates and optimized for use on the Cellomics “ArrayScan II” platform for a quantitative calculation of histone acetylation. The protocol uses a polyclonal rabbit antibody, specifically binding to acetylated lysine 1-20 of human histone H3 on fixed cells with an Alexa Fluor 488 labeled goat anti rabbit-IgG used for counterstaining (Beckers et al. Int J. Cancer 121, 1138, 2007).
5×10^3 HeLa cervical carcinoma cells/well (ATCC. CCL-2) in 200 μl Dulbecco rs modified Eagle's medium (DMEM) containing 10% fetal calf serum are seeded at day 1 in Packard view plates and incubated for 24 h under standard cell culture conditions. On day 2, 1 μl test compound (200× final concentration) is added and incubation continued for further 24 h. On day 3, the culture medium is discarded and attached cells fixed for 15 min at room temperature by addition of 100 μl fixation buffer (3.7% v:v formaldehyde in phosphate buffered saline/PBS). After discarding the fixation buffer and one wash with blocking solution (1% BSA, 0.3% Tween 20 in PBS), cells are permeabilized at room temperature by addition of 100 μl/well permeabilization buffer (30.8 mM NaCl, 0.54 mM Na2HPO4, 0.31 mM KH2PO4, 0.1% v:v Triton X-100) for 15 min at room temperature. After discarding the permeabilization buffer and washing twice with 100 μl/well blocking solution at room temperature, the 1st antibody (anti-K^1-20 histone H3 antibody, Calbiochem No. 382158) in blocking solution (50 μl/well) is added. After incubation for 1 h at room temperature, the wells are washed twice at room temperature with 100 μl/well blocking solution before addition of the 2nd antibody (goat-anti-rabbit Alexa Fluor 488; MoBiTec No. A-11008) in blocking solution (50 μl/well). After further incubation for 1 h at room temperature, wells are washed twice with 100 μl/well blocking solution at room temperature. Finally, 100 μl/well PBS are added and image analysis performed on the Cellomics “ArrayScan II” platform. For EC50 determination, the percentage of positive cells showing nuclear fluorescence is determined and EC50 calculation done from concentration-effect curves by means of non-linear regression. For calibration, a positive (reference HDAC inhibitors like SAHA or NVP LBH-589) and a negative control were included.

For a further series, the target named is T4, PDGFRβ (Homo sapiens, UniProt P09619).
T4 construct: purchased ProQinase, Freiburg/Germany
T4 sequence (P09619 33-1106): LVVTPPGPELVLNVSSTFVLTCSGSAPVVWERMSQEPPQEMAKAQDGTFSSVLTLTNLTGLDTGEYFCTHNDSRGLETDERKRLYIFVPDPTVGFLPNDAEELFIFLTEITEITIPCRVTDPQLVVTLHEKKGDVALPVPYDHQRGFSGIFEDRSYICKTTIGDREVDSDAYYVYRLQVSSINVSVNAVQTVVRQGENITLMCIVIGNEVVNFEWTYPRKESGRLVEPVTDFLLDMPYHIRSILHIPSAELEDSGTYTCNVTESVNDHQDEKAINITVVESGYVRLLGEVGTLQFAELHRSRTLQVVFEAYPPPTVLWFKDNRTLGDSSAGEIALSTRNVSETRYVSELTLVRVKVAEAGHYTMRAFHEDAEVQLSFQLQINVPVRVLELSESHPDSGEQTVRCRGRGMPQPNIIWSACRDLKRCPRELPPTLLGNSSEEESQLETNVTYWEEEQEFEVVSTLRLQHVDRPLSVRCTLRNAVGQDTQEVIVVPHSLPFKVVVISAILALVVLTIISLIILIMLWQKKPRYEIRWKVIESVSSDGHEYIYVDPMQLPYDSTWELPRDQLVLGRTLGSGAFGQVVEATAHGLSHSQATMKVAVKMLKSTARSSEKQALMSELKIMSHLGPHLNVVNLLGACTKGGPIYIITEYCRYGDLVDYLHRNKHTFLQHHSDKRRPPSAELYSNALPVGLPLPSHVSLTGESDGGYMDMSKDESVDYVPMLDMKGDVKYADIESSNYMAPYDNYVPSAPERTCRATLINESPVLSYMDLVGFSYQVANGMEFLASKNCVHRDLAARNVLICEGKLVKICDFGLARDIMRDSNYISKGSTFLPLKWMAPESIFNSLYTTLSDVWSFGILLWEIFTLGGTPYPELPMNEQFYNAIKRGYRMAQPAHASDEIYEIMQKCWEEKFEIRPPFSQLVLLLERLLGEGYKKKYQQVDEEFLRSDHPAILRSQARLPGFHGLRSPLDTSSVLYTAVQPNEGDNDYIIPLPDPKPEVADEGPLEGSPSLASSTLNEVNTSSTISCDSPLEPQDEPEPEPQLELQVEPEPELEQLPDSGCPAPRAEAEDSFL
In words: Biochemical flash-plate based kinase assay, PDGFRβ. The note with it: only a range over the listed compounds is given; read-out: PDGFRβ inhibition IC50.
Description: as §1

A further series concerns the target T5, Bcr-abl (wt) (Homo sapiens, UniProt P00519).
T5 construct: purchased ProQinase, Freiburg/Germany
T5 sequence (P00519 118-553 limits assumed): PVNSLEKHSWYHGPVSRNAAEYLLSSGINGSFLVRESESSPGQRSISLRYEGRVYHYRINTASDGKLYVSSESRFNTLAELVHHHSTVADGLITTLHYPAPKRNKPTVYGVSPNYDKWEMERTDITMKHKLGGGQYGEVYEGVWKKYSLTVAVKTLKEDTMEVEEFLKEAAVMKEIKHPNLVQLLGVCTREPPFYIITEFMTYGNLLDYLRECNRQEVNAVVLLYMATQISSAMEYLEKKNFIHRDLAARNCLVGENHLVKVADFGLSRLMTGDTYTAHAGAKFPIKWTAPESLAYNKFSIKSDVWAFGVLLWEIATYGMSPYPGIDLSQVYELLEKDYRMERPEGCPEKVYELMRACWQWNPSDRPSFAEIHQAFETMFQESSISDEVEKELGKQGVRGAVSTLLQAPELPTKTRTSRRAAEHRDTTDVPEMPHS
The series can be described thus: Biochemical flash-plate based kinase assay, Bcr-abl (wt). The note with it: only a range over the listed compounds is given; read-out: Bcr-abl (wt) inhibition IC50.
Description: as §1

A further series concerns the target T6, Bcr-abl T^315I (Homo sapiens, UniProt P00519, T315I).
T6 construct: purchased Millipore/Upstate, Billerica/USA
In words: Biochemical flash-plate based kinase assay, Bcr-abl T315I. The note with it: only a range over the listed compounds is given; read-out: Bcr-abl T^315I inhibition IC50.
Description: as §1

Series [6] relates to HeLa cervical carcinoma cell line. In words: Cellular cytotoxicity assay (Alamar Blue), HeLa. The format is cell-based. Particulars: Homo sapiens, 72 h, only a range over the listed compounds is given, read-out: Cytotoxicity towards HeLa cervical cell line IC50. As to the method:
as §2

A further series deals with A549 NSCLC cell line. In words: Cellular cytotoxicity assay (Alamar Blue), A549. It counts as cell-based. The note with it: Homo sapiens. How it is done: as §2
[7] abbreviates: A549, 72 h, only a range over the listed compounds is given, read-out: Cytotoxicity towards A549 NSCLC cell line IC50.

In turn, `C#Cc1cccc(Nc2ncnc3ccc(NC(=O)c4ccc(C(=O)Nc5ccccc5N)nc4)cc23)c1` [[36], N^2-(2-aminophenyl)-N^5-(4-(3-ethynylphenylamino)-quinazolin-6-yl)pyridine-2,5-dicarboxamide] came in with a melting point of 213 to 216 °C. In addition, at EGFR/HER1, the IC50 lay in the range of 2.2 to 150 nM. Moreover, in [1], the IC50 was in the range of 160 to 8000 nM.
In turn, `O=C(/C=C/c1ccc(-c2ccc3ncnc(Nc4ccc(OCc5cccc(F)c5)c(Cl)c4)c3c2)s1)NO` [[7], E-3-(5-{4-[3-Chloro-4-(3-fluorobenzyloxy)-phenylamino]quinazolin-6-yl}thiophene-2-yl)-N-hydroxy-acrylamide hydrochloride monohydrate] gave an IC50 on Protein kinase A (PKA) of 35000 nM.
Regarding `CN(C(=O)c1ccc(C(=O)Nc2ccccc2N)cc1)c1ccc(Cl)c(Nc2nccc(-c3cccnc3)n2)c1` [[35], N-(2-Amino-phenyl)-N′-[4-chloro-3-(4-pyridin-3-yl-pyrimidin-2-ylamino)-phenyl]-N′-methyl-terephthalamide], the IC50 in [2] lay within 3 to 780 nM; in series [3], 77 to 1400 nM; in series [4] it was 490 to 4070 nM.
As to `O=C(NO)c1ccc(-c2ccc3ncnc(Nc4ccc(OCc5cccc(F)c5)c(Cl)c4)c3c2)s1` [[4], 5-{4-[3-Chloro-4-(3-fluorobenzyloxy)phenyl-amino]quinazolin-6-yl}thiophene-2-carboxylic acid hydroxyamide hydrochloride dihydrate], on EGFR/HER1, the IC50 was in the range of 2.2 to 150 nM. For the same compound, in series [5], the EC50 is ≥ 3650 nM.
`Cc1ccc(NC(=O)c2ccc(/C=C/C(=O)NO)cc2)cc1Nc1nc(-c2cccnc2)cs1` [[19], (E)-4-(3-(hydroxyamino)-3-oxoprop-1-enyl)-N-(4-methyl-3-(4-(pyridin-3-yl)thiazol-2-ylamino)phenyl)benzamide]: the IC50 at PDGFRβ was 2100 to 71000 nM; on Bcr-abl (wt) it was 2000 to 39000 nM; in series [2] it was 3 to 780 nM; at Bcr-abl T^315I, 1000 to 34000 nM; in [3] it was 77 to 1400 nM.
Regarding `Cc1ccc(NCc2ccc(C(=O)Nc3ccccc3N)cc2)cc1Nc1nccc(-c2cccnc2)n1` [[15], N-(2-Amino-phenyl)-4-{[4-methyl-3-(4-pyridin-3-yl-pyrimidin-2-ylamino)-phenylamino]-methyl}-benzamide], the IC50 in [6] was ≥ 1150 nM; at PDGFRβ, 2100 to 71000 nM; on Bcr-abl (wt), 2000 to 39000 nM; on Bcr-abl T^315I, 1000 to 34000 nM; with A549 NSCLC cell line (setting [7]), ≥ 2.95e-06 M; in series [4], 490 to 4070 nM.
As for `O=C(/C=C/c1ccc(-c2ccc3ncnc(Nc4ccc(OCc5cccc(F)c5)c(Cl)c4)c3c2)o1)NO` [[2], E-3-(5-{4-[3-Chloro-4-(3-fluorobenzyloxy)-phenylamino]quinazolin-6-yl}furan-2-yl)-N-hydroxy-acrylamide hydrochloride monohydrate], the IC50 on EGFR/HER1 was 2.2 to 150 nM; with A549 NSCLC cell line (A549, 72 h, read-out: Cytotoxicity towards A549 NSCLC cell line IC50 (M)), ≥ 1.1e-06 M; in series [3], ≥ 35.3 nM. The EC50 in [5] was ≥ 3650 nM.
In turn, `Cc1ccc(NC(=O)c2ccc(/C=C/C(=O)NO)s2)cc1Nc1nc(-c2cccnc2)cs1` [[33], (E)-5-(3-(hydroxyamino)-3-oxoprop-1-enyl)-N-(4-methyl-3-(4-(pyridin-3-yl)thiazol-2-ylamino)phenyl)thiophene-2-carboxamide] gave a melting point of 241.6 °C. Besides, the IC50 on Bcr-abl (wt) is 2000 to 39000 nM. Also, the IC50 at Bcr-abl T^315I lay in the range of 1000 to 34000 nM. Also, the IC50 with A549 NSCLC cell line (setting [7]) was ≥ 2.95e-06 M.

As a reminder, the melting point is the temperature, or range, at which the solid turns liquid. In general, EC50 refers to the concentration at which the effect is half-maximal.
